Reference: patent US8063225B2, “Tricyclic compound derivatives useful in the treatment of neoplastic diseases, inflammatory disorders and immunomodulatory disorders” (Chembridge Corporation, priority 2006, dated 2011)
pIC50: −log10 of the molar value.

Columns and labels:
Ba/F3 = assay: Cell proliferation inhibition, Cell Titer-Glo, Ba/F3; format: cell-based; conditions: Mus musculus, BaF3; cell proliferation assay, Ba/F3 cells
In short: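 Ba/F3 cells were seeded at 2500-5000 cells per well in white, clear-bottomed 384-well culture plates and exposed to serial dilutions of test compounds for 3 days. Cell Titer-Glo Luminescent Cell Viability Assay (Promega) reagent, which measures total ATP as an indicator of metabolic activity, was added. Luminescence was read on a multiwell plate reader to derive IC50 values for inhibition of proliferation.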

Karpas-299 = assay: Cell proliferation inhibition, Cell Titer-Glo, Karpas-299; format: cell-based; conditions: Homo sapiens; cell proliferation assay, Karpas-299 cells
In short: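 Karpas 299 cells were seeded into white, clear-bottomed 384-well culture plates at 2500-5000 cells per well and exposed to serial dilutions of test compounds for about 3 days. Viable cell numbers were then measured with the Cell Titer-Glo Luminescent Cell Viability Assay (Promega), which detects total ATP, and IC50 values for proliferation inhibition were derived.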

Jak2 = biological target: T1, Jak2 (Homo sapiens, UniProt O60674); assay: Tyrosine kinase assay (Kinase-Glo or AlphaScreen), Jak2; conditions: biochemical tyrosine kinase assay
T1 construct: 6×His- or GST-tagged kinase domain fragments of the corresponding RTKs expressed in baculovirus system; host or cells: baculovirus system
T1 sequence (O60674 849-1124 limits assumed, species assumed): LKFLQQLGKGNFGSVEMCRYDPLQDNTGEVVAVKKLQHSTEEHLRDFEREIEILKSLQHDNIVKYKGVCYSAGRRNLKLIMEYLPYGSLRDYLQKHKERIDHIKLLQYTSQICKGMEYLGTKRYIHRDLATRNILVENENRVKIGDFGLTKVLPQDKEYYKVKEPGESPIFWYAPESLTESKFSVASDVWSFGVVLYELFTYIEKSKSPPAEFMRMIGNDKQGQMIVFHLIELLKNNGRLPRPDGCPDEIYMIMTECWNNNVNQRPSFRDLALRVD
In short: (§1)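 Recombinant His- or GST-tagged kinase domains from baculovirus were assayed with poly(Glu-Tyr, 4:1) substrate and 10 μM ATP in Tris-HCl pH 7.5 with Mg2+/Mn2+. Kinase-Glo: 37° C for 60 minutes, residual ATP read by luminescence. IC50 from non-linear regression over eight concentrations, 1 nM to 20 μM.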

IGF1R tyrosine kinase = biological target: T2, IGF1R tyrosine kinase (Homo sapiens, UniProt P08069); assay: IGF1R tyrosine kinase assay (Kinase-Glo ATP depletion or PT66/PT100 AlphaScreen); conditions: biochemical tyrosine kinase assay
T2 construct: 6×His- or GST-tagged kinase domain fragments of the corresponding RTKs expressed in baculovirus system; host or cells: baculovirus system
T2 sequence (P08069 999-1274 limits assumed): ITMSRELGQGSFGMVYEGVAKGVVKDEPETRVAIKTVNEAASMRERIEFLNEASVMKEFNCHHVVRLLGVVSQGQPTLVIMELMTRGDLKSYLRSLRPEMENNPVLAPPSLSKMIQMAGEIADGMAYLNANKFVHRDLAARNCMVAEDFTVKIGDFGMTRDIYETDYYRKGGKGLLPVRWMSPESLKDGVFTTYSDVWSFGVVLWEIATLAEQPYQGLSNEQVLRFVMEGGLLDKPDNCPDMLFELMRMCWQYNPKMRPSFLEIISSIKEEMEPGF
In short: as §1

Alk = biological target: T3, Alk (Homo sapiens, UniProt Q9UM73); assay: Tyrosine kinase assay (Kinase-Glo or AlphaScreen), Alk; conditions: biochemical tyrosine kinase assay
T3 construct: 6×His- or GST-tagged kinase domain fragments of the corresponding RTKs expressed in baculovirus system; host or cells: baculovirus system
T3 sequence (Q9UM73 1116-1392 limits assumed, species assumed): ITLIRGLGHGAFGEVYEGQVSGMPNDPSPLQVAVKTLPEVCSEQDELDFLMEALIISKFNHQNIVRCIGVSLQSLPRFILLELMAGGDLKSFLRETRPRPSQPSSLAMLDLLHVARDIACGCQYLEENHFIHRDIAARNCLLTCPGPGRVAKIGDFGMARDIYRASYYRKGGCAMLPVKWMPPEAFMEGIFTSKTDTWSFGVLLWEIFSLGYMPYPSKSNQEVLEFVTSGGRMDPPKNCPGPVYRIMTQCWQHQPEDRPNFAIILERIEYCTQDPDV
In short: as §1

K562 = assay: Cell proliferation inhibition, Cell Titer-Glo, K562; format: cell-based; conditions: Homo sapiens; cell proliferation assay, K562 cells
In short: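 K562 cells were seeded at 2500-5000 cells per well in white, clear-bottomed 384-well culture plates and treated with dilutions of test compounds for typically 3 days. Viable cells were quantified with the Cell Titer-Glo Luminescent Cell Viability Assay (Promega), which measures total ATP, read on a luminescence plate reader to derive IC50 values for proliferation inhibition.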

InsR = biological target: T4, InsR (Homo sapiens, UniProt P06213); assay: Tyrosine kinase assay (Kinase-Glo or AlphaScreen), InsR; conditions: biochemical tyrosine kinase assay
T4 construct: 6×His- or GST-tagged kinase domain fragments of the corresponding RTKs expressed in baculovirus system; host or cells: baculovirus system
T4 sequence (P06213 1023-1298 limits assumed, species assumed): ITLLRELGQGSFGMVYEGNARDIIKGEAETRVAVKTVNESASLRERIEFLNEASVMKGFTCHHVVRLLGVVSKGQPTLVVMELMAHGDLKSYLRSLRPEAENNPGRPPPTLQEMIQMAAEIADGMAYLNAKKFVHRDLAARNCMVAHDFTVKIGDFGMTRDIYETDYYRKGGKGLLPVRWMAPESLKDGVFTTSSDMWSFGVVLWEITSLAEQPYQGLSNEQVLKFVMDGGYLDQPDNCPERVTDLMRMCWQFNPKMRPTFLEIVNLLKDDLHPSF
In short: as §1

H929 (multiple myeloma) = assay: Cell proliferation inhibition, Cell Titer-Glo, H929; format: cell-based; conditions: Homo sapiens, NCI-H929; cell proliferation assay, H929 cells
Description: IGF1R and other tyrosine kinase inhibitors can inhibit the proliferation of certain cancer cell lines indicating their possible therapeutic utility for treating the corresponding cancer types. Cancer cell lines of interest and control normal lines, including CHO, HEK293, BA/F3, MM1, H929, COLO205, PC3, DU145, MCF7, Panc1, ACHN, Hep G2, H460, K562, TT, U87-G, CAOV-3, SK-MEL5, Karpas 299, are plated in white, clear-bottomed 384-well cell culture plates at 2500-5000 cells per well and supplied with dilutions of tested compounds After a desired period of time (typically 3 days), the number of viable cells is quantitated by using Cell Titer-Glo Luminescent Cell Viability Assay (Promega), a cell proliferation assay system based on detection of total amount of ATP present as a measure of cell metabolic activity. The plated cells are mixed with the Cell Titer-Glo developing reagent and counted in a luminescence multiwell plate reader according to the standard manufacturer's protocol to generate IC50 curves for cell proliferation inhibition.
IGF1R and other tyrosine kinase inhibitors can inhibit the proliferation of certain cancer cell lines indicating their possible therapeutic utility for treating the corresponding cancer types. Cancer cell lines of interest and control normal lines, including CHO, HEK293, BA/F3, COLO205, PC3, DU145, MCF7, Panc1, ACHN, Hep G2, H460, K562, TT, U87-MG, CAOV-3, SK-MEL5, Karpas 299 and human multiple myeloma cell lines H929, MM1s, MM1r, UTMC2, CPM2, KMS11, My5, KMS12PE, My7, JJN3, KMS18, U266, SKMM2, RPMI-8226 are plated in white, clear-bottomed 384-well cell culture plates at 2500-5000 cells per well and supplied with dilutions of tested compounds After a desired period of time (typically 3 days), the number of viable cells is quantitated by using Cell Titer-Glo Luminescent Cell Viability Assay (Promega), a cell proliferation assay system based on detection of total amount of ATP present as a measure of cell metabolic activity. The plated cells are mixed with the Cell Titer-Glo developing reagent and counted in a luminescence multiwell plate reader according to the standard manufacturer's protocol to generate IC50 curves for cell proliferation inhibition. Results are typically reported as percent of growth (% viability =(OD72h(compound)−ODday0))/(OD72h(no compound)−ODday0). Alternatively, viable cells are quantitated by using the conventional colorimetric MTT assay. The MTT assay is based on the cleavage of the yellow tetrazolium salt MTT to purple formazan crystal by metabolic active cells. The formazan is then solubilized, and the concentration determined by optical density at 570 nm. The cells plated and incubated with a compound as described above are supplemented with the solution of MTT and incubated for 2-3 hours. The growth medium is removed and dimethyl sulfoxide is added into each well to dissolve the formazan. The absorbance is measured on an ELISA plate reader with a test wavelength of 570 nm and a background subtraction wavelength of 630 nm to obtain sample signal (OD570-OD630). […] The results are reported in terms of IC50 value for a particular compound and a cell line in the standard 3-day proliferation assay using Cell Titer-Glo. […] The results are reported in terms of IC50 value for a particular compound and a cell line in the standard 3-day proliferation assay using MTT assay.

IGF1 receptor = biological target: T5, IGF1 receptor (Homo sapiens, UniProt P08069); assay: ELISA-based assay of IGF1 receptor autophosphorylation inhibition in cells; format: cell-based; conditions: IGF1R phosphorylation inhibition in MCF7 cells
T5 construct: MCF7 human breast cancer cells expressing IGF1 receptor; endogenous in cells; host or cells: MCF7 human breast cancer cells
T5 sequence (P08069 741-1367 limits assumed): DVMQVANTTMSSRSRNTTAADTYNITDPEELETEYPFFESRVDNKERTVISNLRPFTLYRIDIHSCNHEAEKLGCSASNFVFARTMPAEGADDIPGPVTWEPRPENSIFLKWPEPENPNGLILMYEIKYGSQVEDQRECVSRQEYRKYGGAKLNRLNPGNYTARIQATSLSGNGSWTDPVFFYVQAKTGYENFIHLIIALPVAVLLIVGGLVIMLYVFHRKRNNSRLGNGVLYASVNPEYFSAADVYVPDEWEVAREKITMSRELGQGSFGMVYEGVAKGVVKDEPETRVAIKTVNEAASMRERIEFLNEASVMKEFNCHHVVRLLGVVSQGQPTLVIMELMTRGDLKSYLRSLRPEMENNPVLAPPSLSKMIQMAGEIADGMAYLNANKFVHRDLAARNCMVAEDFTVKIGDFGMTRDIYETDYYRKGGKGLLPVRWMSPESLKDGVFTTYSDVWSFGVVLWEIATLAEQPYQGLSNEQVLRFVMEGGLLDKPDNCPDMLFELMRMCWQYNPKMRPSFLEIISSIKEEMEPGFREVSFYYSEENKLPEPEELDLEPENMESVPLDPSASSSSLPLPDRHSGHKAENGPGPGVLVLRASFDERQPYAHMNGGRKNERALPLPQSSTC
T5 sequence (P08069 31-736 partner limits assumed): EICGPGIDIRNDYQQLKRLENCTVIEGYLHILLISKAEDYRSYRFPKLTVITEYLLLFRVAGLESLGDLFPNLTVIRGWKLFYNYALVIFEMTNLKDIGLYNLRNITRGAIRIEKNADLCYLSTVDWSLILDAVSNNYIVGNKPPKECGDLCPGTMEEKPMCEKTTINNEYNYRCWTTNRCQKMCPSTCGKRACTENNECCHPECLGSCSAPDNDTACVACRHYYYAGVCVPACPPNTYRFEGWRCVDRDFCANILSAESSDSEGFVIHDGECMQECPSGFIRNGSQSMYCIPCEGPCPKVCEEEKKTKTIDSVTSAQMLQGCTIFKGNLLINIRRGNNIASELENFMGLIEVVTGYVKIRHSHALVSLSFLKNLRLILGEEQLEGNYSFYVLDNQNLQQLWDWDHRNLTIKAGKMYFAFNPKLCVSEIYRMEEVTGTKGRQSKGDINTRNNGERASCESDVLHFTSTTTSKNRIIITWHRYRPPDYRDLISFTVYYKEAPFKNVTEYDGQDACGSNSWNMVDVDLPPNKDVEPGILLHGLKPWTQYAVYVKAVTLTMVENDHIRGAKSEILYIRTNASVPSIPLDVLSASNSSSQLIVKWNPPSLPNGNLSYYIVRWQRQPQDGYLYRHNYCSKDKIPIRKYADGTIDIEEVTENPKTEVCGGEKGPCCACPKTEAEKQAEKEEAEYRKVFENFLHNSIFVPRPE
Description: In another embodiment, compounds that interact with the IGF1R kinase domain are tested in a cell-based assay system. In accordance with this embodiment, cells expressing a full-length IGF1 receptor or a fragment thereof containing the IGF1R kinase domain, are contacted with a candidate or a control compound and the ability of the compound to block tyrosine kinase activity of IGF1R within a cell is determined. This assay may be used to screen a single compound or a large library of candidate compounds. Typically, the cells or cell lines are of mammalian origin and they can express the IGF1 receptor, or functional IGF1R kinase domain fragment, endogenously or be genetically engineered to express the IGF1R, or functional fragment thereof. The ability of the candidate compound to inhibit IGF1R kinase activity can be determined by methods known to those skilled in the art. For example, the inhibition can be determined by ELISA-type assay or Western blot analysis with cell lysates or immunoprecipitated IGF1R receptor using various anti-IGF1R and anti-phosphotyrosine antibodies.
In general, cells expressing IGF1R are treated with modulators (i.e., inhibitors or activators) of IGF1R kinase activity and cell lysates are produced from these treated cells. IGF1Rs are isolated from the lysate by immunoprecipitation and analyzed for phosphotyrosine content. Alternatively, or in addition, cellular protein substrates phosphorylated by IGFR may be immunoprecipitated from the lysates and their degree of tyrosine phosphorylation determined.
MCF7 human breast cancer cells expressing IGF1 receptor or an engineered […] fibroblast cell line NIH 3T3 overexpressing full-length IGF1R are an exemplary cellular models in which to perform such assays. Such cells may be maintained in DMEM medium supplemented with 10% fetal bovine serum (FBS), 4% L-glutamine, 1% antibiotic solution (penicillin-Streptomycin) in a humidified atmosphere of 95% air and 5% CO2 at 37° C. Confluent cells in T175 cell culture flasks are incubated overnight with serum-free DMEM medium. After the serum starvation step, the cells are detached and split into a standard 96-well cell culture plate (one T175 flask per plate, 30 μl of cell suspension per plate well). Tested inhibitors from their 10 mM stock solutions in DMSO are subsequently added at various concentrations in serum-free DMEM medium for 1 hour incubation at 37° C. in CO2-incubator; total DMSO concentration in both treated and control wells is adjusted to 1%. Cells are then stimulated for 10 minutes with 100 nM IGF-1 added in 30 μl DMEM. After treatment, cells are lysed by addition of 30 μl of 4× lysis buffer (phosphate-buffered saline (PBS), 2% Triton-X100, 1 mM phenylmethylsulphonyl fluoride (PMSF) and 8 mM activated orthovanadate), mixing and incubation for 15 minute at room temperature. To prepare assay plates, 96-well ELISA Plates (Pierce Chemical, Reacti-bind plates) were coated by goat-anti-rabbit Fc antiserum by adding 0.25 μg antiserum per well in 0.2M sodium bicarbonate buffer per well and incubating overnight at 4° C. After incubation, the plate is washed three times by PBS with 0.02% Tween-20, supplied with 25 ng/50 μl per well of anti-IGF1R antibody (C-20, Santa Cruz Biotechnology) and incubated for several hours to overnight. Prior to the addition of the prepared cellular lysates, the antibody solution is aspirated, wells washed with PBS and supplied with 25 μl per well of Starting Block buffer (Pierce Chemical).
To measure tyrosine phosphorylation of the beta-subunits of the IGF1R, 25-50 μl of the lysates are transferred from the stimulation plate to the wells of the prepared assay plate and incubated overnight at 4° C. The wells are washed with PBS with 0.02% Tween-20, incubated with 50 μl of 1:3000 dilution of anti-phosphotyrosine 4G10-HRP antibody conjugate (Upstate Biotechnology) for 2 hours at room temperature and washed again. […]

Row | SMILES | pIC50 (Ba/F3) | pIC50 (Karpas-299) | pIC50 (Jak2) | pIC50 (IGF1R tyrosine kinase) | pIC50 (Alk) | pIC50 (K562) | pIC50 (InsR) | pIC50 (H929 (multiple myeloma)) | pIC50 (IGF1 receptor)
1 | O=C1c2cc3nc(-c4c(NC[C@@H](O)COc5c(F)ccc(Cl)c5F)cc[nH]c4=O)[nH]c3cc2C(=O)N1C1CCN(CCO)CC1 [compound 125] | < 4.82 | < 4.82 | 5.30 to 6.30 | > 6.30 | 5.30 to 6.30 | < 4.82 | 5.30 to 6.30 | < 4.82 | –
2 | Cc1ccc(OC[C@H](O)CNc2cc[nH]c(=O)c2-c2nc3c(C)c4c(cc3[nH]2)C(=O)N(C2CCN(C)CC2)C4=O)c(C)c1Cl [compound 137] | < 4.82 | < 4.82 | 5.30 to 6.30 | 5.30 to 6.30 | 4.82 to 5.30 | < 4.82 | > 6.30 | < 4.82 | –
3 | Cc1ccc(OC[C@H](O)CNc2cc[nH]c(=O)c2-c2nc3cc4c(cc3[nH]2)C(=O)N(C2CCN(CCN(C)C)CC2)C4=O)c(C)c1 [compound 126] | 5.30 to 6.30 | 5.30 to 6.30 | 5.30 to 6.30 | > 6.30 | 4.82 to 5.30 | 4.82 to 5.30 | 5.30 to 6.30 | 4.82 to 5.30 | –
4 | Cc1c(Cl)cccc1OC[C@H](O)CNc1cc[nH]c(=O)c1-c1nc2cc3c(cc2[nH]1)C(=O)N(C1CCN(CCO)CC1)C3=O [compound 124] | < 4.82 | 4.82 to 5.30 | 5.30 to 6.30 | 5.30 to 6.30 | 5.30 to 6.30 | < 4.82 | 5.30 to 6.30 | < 4.82 | –
5 | Cc1ccc(OC[C@H](O)CNc2cc[nH]c(=O)c2-c2nc3cc4c(cc3[nH]2)C(=O)N(CC2CCN(CCO)CC2)C4=O)c(C)c1 [compound 118] | < 4.82 | 4.82 to 5.30 | 5.30 to 6.30 | > 6.30 | 5.30 to 6.30 | < 4.82 | > 6.30 | < 4.82 | –
6 | CN1CCC(N2C(=O)c3cc4nc(-c5c(NCC(O)COc6cccc(Cl)c6)cc[nH]c5=O)[nH]c4cc3C2=O)CC1 (stereo not drawn) [compound 38] | < 4.82 | < 4.82 | 5.30 to 6.30 | 5.30 to 6.30 | 5.30 to 6.30 | 4.82 to 5.30 | 5.30 to 6.30 | 5.30 to 6.30 | –
7 | COc1ccccc1OCC(O)CNc1cc[nH]c(=O)c1-c1nc2cc3c(cc2[nH]1)C(=O)N(C1CCN(C)CC1)C3=O (stereo not drawn) [compound 41] | 5.30 to 6.30 | 5.30 to 6.30 | 4.82 to 5.30 | 5.30 to 6.30 | 4.82 to 5.30 | 4.82 to 5.30 | 5.30 to 6.30 | 4.82 to 5.30 | –
8 | CN1CCC(N2C(=O)c3cc4nc(-c5c(NCCc6c[nH]cn6)cc[nH]c5=O)[nH]c4cc3C2=O)CC1 [compound 4] | 4.82 to 5.30 | 5.30 to 6.30 | 5.30 to 6.30 | 5.30 to 6.30 | 5.30 to 6.30 | 4.82 to 5.30 | 5.30 to 6.30 | 4.82 to 5.30 | –
9 | COc1ccc2c(ccn2C[C@H](O)CNc2cc[nH]c(=O)c2-c2nc3cc4c(cc3[nH]2)C(=O)N(C2CCN(C)CC2)C4=O)c1 [compound 113] | < 4.82 | < 4.82 | 5.30 to 6.30 | 5.30 to 6.30 | > 6.30 | < 4.82 | 5.30 to 6.30 | < 4.82 | –
10 | COCCN1C(=O)c2cc3nc(-c4c(NC[C@@H](O)c5cccc(Cl)c5)cc[nH]c4=O)[nH]c3cc2C1=O [compound 36] | < 4.82 | < 4.82 | < 4.82 | < 4.82 | < 4.82 | < 4.82 | < 4.82 | 5.30 to 6.30 | –
11 | O=C1c2cc3nc(-c4c(NC[C@@H](O)c5cccc(Cl)c5)cc[nH]c4=O)[nH]c3cc2C(=O)N1CCN1CCCC1 [compound 17] | – | – | – | – | – | – | – | – | < 4.82
